Tests used:
CML-KLS+ cells [1] = experiment: Number of GFP/BCR-ABL1+ CML-KLS+ cells in BM of treated CML-affected mice; format: in vivo, mouse; details: daily for 30 days post transplantation
Protocol: Briefly, CML-affected mice received by oral gavage for 30 days post BM transplantation as described above. The number of GFP/BCR-ABL1+CML-KLS+ cells among total GFP/BCR-ABL1+CML cells isolated from BM MNCs acquired from the two hindlimbs of treated CML-affected mice was assessed by flow cytometry. Freshly purified GFP/BCR-ABL1^+CML-KLS^+ cells (3×10^4) were then serially transplanted into a second set of lethally irradiated congenic recipient mice along with 5×10^5 normal BM MNCs derived from C57BL/6 mice. Mouse survival and disease recurrence were monitored for 90 days.

LT-CML cancer stem cells = experiment: Colony-forming assay, LT-CML cancer stem cells on OP-9 stromal cells; format: cell-based, mouse; details: 5 μM, 5 days, hypoxic (3% O2)
Protocol: LT-CML stem cells or LT-normal HSCs (1×10^3/plate) were co-cultured on OP-9 stromal cells for 5 days in the presence of either vehicle (control) or a dipeptide transporter inhibitor cefadroxil (5 μM). Cells were harvested, washed with PBS, and plated in semi-solid methylcellulose medium containing SCF, IL-3, IL-6 and erythropoietin (Methocult GF M3434; Stem Cell Technologies). After growth for 7 days in a humidified atmosphere containing 5% CO2 at 37° C., colony numbers were counted under a light microscope. For combination treatments of dipeptide transporter inhibitor+tyrosine kinase inhibitor (TKI), LT-CML cancer stem cells (3×10^3) were plated on OP-9 stromal cells in the presence of cefadroxil (5 μM). After 24 h in culture, the cells received additional DMSO or 1 μM IM (Axon Medchem) and were incubated for another 4 days (total 5 days). Treated cells were washed with PBS, transferred to a semi-solid medium, and colony formation after 7 days was assessed as described above.

BCR-ABL1+ disease = experiment: Survival and disease recurrence of BCR-ABL1 CML-affected mice; format: in vivo, mouse; details: oral gavage days 8 to 90 post transplantation; IM 100 mg/kg/day; cefadroxil 36 mg/kg/day; versus vehicle
From the text: BCR-ABL1 transduction/transplantation-based CML model (BCR-ABL1 CML mice) was also used. Briefly, normal KLS^+ cells (4-5×10^3 cells per recipient mouse) were transduced with the human BCR-ABL1-ires GFP retrovirus and transplanted into irradiated (9 Gy) recipient C57BL/6 mice (Sankyo-Lab Service, Tsukuba, Japan).
Treatment was delivered by oral gavage on days 8 to 90 post transplantation. To examine the effect of single administration of Ly2228820, BCR-ABL1-CML-affected mice received vehicle, or Ly2228820 (2.5 mg kg^−1 every three days; Axon Medchem) in vehicle, by oral gavage on days 8 to 60 days post transplantation.

normal HSCs = experiment: Colony-forming assay, LT-normal HSCs on OP-9 stromal cells; format: cell-based, mouse; details: 5 μM, 5 days, hypoxic (3% O2)
Protocol: LT-CML stem cells or LT-normal HSCs (1×10^3/plate) were co-cultured on OP-9 stromal cells for 5 days in the presence of either vehicle (control) or a dipeptide transporter inhibitor cefadroxil (5 μM). Cells were harvested, washed with PBS, and plated in semi-solid methylcellulose medium containing SCF, IL-3, IL-6 and erythropoietin (Methocult GF M3434; Stem Cell Technologies). After growth for 7 days in a humidified atmosphere containing 5% CO2 at 37° C., colony numbers were counted under a light microscope.

Slc15A2 transporter = biological target: T1, Slc15A2 transporter (Mus musculus, UniProt Q9ES07); experiment: Slc15A2 transporter activity by [3H]GlySar uptake; format: cell-based; details: in the presence of 100 μM cefadroxil; pH 6.0; 60 or 120 min
T1 construct: endogenous in cells; host or cells: primary mouse normal KLS+ and CML KLS+ haematopoietic cells
T1 sequence (Q9ES07 1-729): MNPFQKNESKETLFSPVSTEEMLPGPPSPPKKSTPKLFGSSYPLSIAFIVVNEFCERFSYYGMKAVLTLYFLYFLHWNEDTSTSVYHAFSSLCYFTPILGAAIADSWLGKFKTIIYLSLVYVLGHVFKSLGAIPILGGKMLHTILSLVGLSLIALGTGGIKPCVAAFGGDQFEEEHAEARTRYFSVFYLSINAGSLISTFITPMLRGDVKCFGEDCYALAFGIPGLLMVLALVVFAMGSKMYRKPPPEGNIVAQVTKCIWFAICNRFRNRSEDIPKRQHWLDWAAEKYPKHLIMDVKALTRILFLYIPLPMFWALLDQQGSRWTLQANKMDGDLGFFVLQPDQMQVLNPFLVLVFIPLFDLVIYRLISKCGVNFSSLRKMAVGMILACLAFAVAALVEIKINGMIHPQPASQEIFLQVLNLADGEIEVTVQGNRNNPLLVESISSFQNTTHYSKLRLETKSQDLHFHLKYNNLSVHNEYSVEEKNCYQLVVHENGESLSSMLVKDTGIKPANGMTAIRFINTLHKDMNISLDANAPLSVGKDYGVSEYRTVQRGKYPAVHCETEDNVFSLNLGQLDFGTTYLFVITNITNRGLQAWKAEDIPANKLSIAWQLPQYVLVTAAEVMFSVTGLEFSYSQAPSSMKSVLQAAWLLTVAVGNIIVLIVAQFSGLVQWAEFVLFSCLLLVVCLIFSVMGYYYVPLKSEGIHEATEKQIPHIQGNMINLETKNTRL
Protocol: 6. Analysis of Slc15A2 Transporter Activity by [3H]GlySar Uptake
Slc15A2 transporter activity was determined using a well-established assay measuring [3H]GlySar uptake by cells suspended in an acidic transport medium (pH 6.0). Briefly, normal KLS^+ cells or CML KLS^+ cells (1×10^5) were suspended in a transport medium (125 mM NaCl, 4.8 mM KCl, 5.6 mM D-glucose, 1.2 mM CaCl2-2H2O4, 1.2 mM KH2PO4, 1.2 mM MgSO4-7H2O and 25 mM MES, pH 6.0) in the absence or presence of 100 μM cefadroxil (Sigma-Aldrich). To initiate the transporter reaction, [3H]GlySar (Moravek Biochemicals, Brea, Calif.) was added to the cell suspension. After 60 or 120 min, the radioactivity of [3H]GlySar internalized by cells was measured using a liquid scintillation counter.

CML-KLS+ cells [2] = experiment: Metabolomic analysis of dipeptides in KLS+ cells from treated CML-affected mice; format: in vivo, mouse; details: cefadroxil 36 mg/kg/day oral gavage for 30 days
Protocol: To detect inhibition of dipeptide uptake in vivo, immature KLS^+ cells were isolated from tet-inducible CML-affected (Tal1-tTA^+TRE-BCR-ABL1^+) mice (n=4 mice in each of the three independent experiments), and normal healthy littermate (Tal1-tTA^+) mice (n=6 mice in each of the two independent experiments) that had received vehicle or cefadroxil (36 mgKg^−1day^−1) by oral gavage for 30 days. […] In all cases, isolated cell pellets were frozen at −80° C. immediately after obtaining. Metabolomic profiling was performed by Metabolon Inc. (Durham, N.C.) using ultrahigh-performance liquid chromatography/mass spectroscopy (UPLC/MS/MS) and gas chromatography/MS (GC/MS). Data were compiled using the Metabolon LIMS (Laboratory Information Management System). The UPLC/MS/MS portion of the platform was based on a Waters Acquity UPLC (Waters) and a Q-Exactive high-resolution/accurate mass spectrometer (Thermo Scientific) interfaced with a heated electrospray ionization (HESI-II) source and Orbitrap mass analyzer. GC/MS was performed by a Trace DSQ fast-scanning single-quadrupole mass spectrometer using electron impact ionization (Thermo-Finnigan).

For `CC1=C(C(=O)O)N2C(=O)[C@@H](NC(=O)[C@H](N)c3ccc(O)cc3)[C@H]2SC1` [cefadroxil], the “number of CML-KLS+ cells among GFP/BCR-ABL1+ CML cells from BM” value (CML-KLS+ cells [1]) was “significantly decreased”, the “colony-forming capacity of LT-CML cancer stem cells” value (LT-CML cancer stem cells) was “significantly decreased” and the “BCR-ABL1+ disease onset / development” value (BCR-ABL1+ disease) was “appeared to promote disease development”. The “colony-forming capacity of normal HSCs” value (normal HSCs) was “maintained normal levels”, the “[3H]GlySar uptake by CML-KLS+ cells” value (Slc15A2 transporter) was “markedly decreased” and the “levels of several dipeptides in immature CML-KLS+ cells” value (CML-KLS+ cells [2]) was “decreased”.

Reference: US10322136B2, “Composition for inhibiting growth or proliferation of chronic myelogenous leukemia cancer stem cells, and screening method therefor” (HIROSHIMA UNIVERSITY, priority 2015, dated 2019)
